# Source: ChEMBL document CHEMBL1255366, “First report of cfr-mediated resistance to linezolid in human staphylococcal clinical isolates recovered in the United States” (2008)
# Tests used:
# Assay type in all cases: functional
# [1] = test system: Staphylococcus aureus; assay: Antimicrobial activity against linezolid-resistant Staphylococcus aureus isolate 004-737X expressing cfr and ermA gene isolated from paraplegic patient by broth microdilution method
# [2] = test system: Staphylococcus epidermidis; assay: Antimicrobial activity against Staphylococcus epidermidis isolate 426-3147L expressing cfr gene by broth microdilution CLSI method
# [3] = test system: Staphylococcus aureus; assay: Antimicrobial activity against linezolid-resistant Staphylococcus aureus isolate 004-737X expressing cfr and ermA gene isolated from paraplegic patient by Etest method
# [4] = test system: Staphylococcus epidermidis; assay: Antimicrobial activity against Staphylococcus epidermidis isolate 426-3147L expressing cfr gene by Etest method
# [5] = test system: Staphylococcus aureus; assay: Antimicrobial activity against linezolid-resistant Staphylococcus aureus isolate 004-737X expressing cfr and ermA gene isolated from paraplegic patient by disk diffusion method
# [6] = test system: Staphylococcus epidermidis; assay: Antimicrobial activity against Staphylococcus epidermidis isolate 426-3147L expressing cfr gene by disk diffusion method
SMILES,MIC [1],MIC [2],MIC [3],MIC [4],diameter of the inhibition zone (DIZ) [5],diameter of the inhibition zone (DIZ) [6]
Cc1onc(-c2ccccc2)c1C(=O)N[C@@H]1C(=O)N2[C@@H]1SC(C)(C)[C@@H]2C(=O)O [OXACILLIN],> 2 µg/mL,> 2 µg/mL,–,–,–,–
CC(=O)NC[C@H]1CN(c2ccc(N3CCOCC3)c(F)c2)C(=O)O1 [LINEZOLID],8 µg/mL,> 256 µg/mL,8 µg/mL,> 256 µg/mL,19 mm,6 mm
CC[C@H]1OC(=O)[C@H](C)[C@@H](O[C@H]2C[C@@](C)(OC)[C@@H](O)[C@H](C)O2)[C@H](C)[C@@H](O[C@@H]2O[C@H](C)C[C@H](N(C)C)[C@H]2O)[C@](C)(O)C[C@@H](C)C(=O)[C@H](C)[C@@H](O)[C@]1(C)O [ERYTHROMYCIN],> 256 µg/mL,> 4 µg/mL,–,–,–,–
CN(C)[C@@H]1C(O)=C(C(N)=O)C(=O)[C@@]2(O)C(O)=C3C(=O)c4c(O)cccc4[C@@](C)(O)[C@H]3C[C@@H]12 [TETRACYCLINE],> 8 µg/mL,> 8 µg/mL,–,–,–,–
O=C(O)c1cn(C2CC2)c2cc(N3CCNCC3)c(F)cc2c1=O [CIPROFLOXACIN],> 32 µg/mL,–,–,–,–,–
O=C(N[C@H](CO)[C@H](O)c1ccc([N+](=O)[O-])cc1)C(Cl)Cl [CHLORAMPHENICOL],> 256 µg/mL,> 256 µg/mL,–,–,–,–
C=C[C@]1(C)C[C@@H](OC(=O)CS[C@@H]2C[C@H]3CC[C@@H](C2)N3C)[C@]2(C)[C@H](C)CC[C@]3(CCC(=O)[C@H]32)[C@@H](C)[C@@H]1O [RETAPAMULIN],32 µg/mL,> 32 µg/mL,–,–,–,–
C/C(=C\C(=O)OCCCCCCCCC(=O)O)C[C@@H]1OC[C@H](C[C@@H]2O[C@H]2[C@@H](C)[C@H](C)O)[C@@H](O)[C@H]1O [MUPIROCIN],0.25 µg/mL,64 µg/mL,–,–,–,–
CCC[C@@H]1C[C@@H](C(=O)N[C@@H]([C@H]2O[C@H](SC)[C@H](O)[C@@H](O)[C@H]2O)[C@H](C)Cl)N(C)C1 [CLINDAMYCIN],> 256 µg/mL,> 256 µg/mL,–,–,–,–
